Measurements published in US11702394B2, “Inhibitors of phospholipid synthesis and methods of use” (The Board of Trustees of the Leland Stanford Junior …, priority 2018, dated 2023).
Entries after “also recorded” stand apart in the source; their conditions may differ.

What was measured:
[1] = system: mouse derived MYC-induced HCC EC4 line; experiment: HCC EC4 proliferation / cell viability (FIG. 8, 9, 12A); format: cell-based; conditions: for cell viability as compared to FSG67: HCC EC4, 1-100 μM dose, two days (48 hours) post treatment
Procedure: (§1) Cell Counting. A volume of cells was removed from culture medium and mixed with an equal volume of 0.4% Trypan blue stain. Then, 10 μL were taken out and placed into a hemocytometer for cell counting. Viable cell counts were used as a measure of cell proliferation.

[2] = system: mouse-derived MYC-induced RCC E28 line; experiment: RCC E28 proliferation / cell viability (FIG. 7, 10B, 12B); format: cell-based
Procedure: as §1
(§2) All RCC cell lines were maintained in Dulbecco's Modified Eagle Medium (DMEM) supplemented with 10% fetal bovine serum (FBS), 1% L-glutamine, 1% sodium pyruvate, 1% nonessential amino acids, and Antibiotic-Antimycotic. All lymphoma lines were maintained in RPMI 1640 medium supplemented with 10% FBS, 50 μM β-mercaptoethanol, and […]

[3] = system: human MYC-induced Burkitt's Lymphoma line P493; experiment: BCL P493 cell viability (FIG. 10A, 12C); format: cell-based; conditions: BCL P493, 1-100 μM dose, five days post treatment
Procedure: as §1, §2

mouse-derived T-ALL line = experiment: Response in mouse-derived T-ALL line at high, low or no MYC (FIG. 6); format: cell-based; conditions: 1-100 μM; MYC levels controlled by doxycycline-off system
Procedure: as §1, §2

MYC-induced tumors = MYC-induced tumors in xenograft and primary mouse models; format: in vivo
From the text: A Tet system was used to conditionally activate MYC, in the liver, kidney, lymphocyte, and lung tissue of transgenic mice. In this system, […] In the absence of tetracycline, transcription of the oncogene is activated. Oncogene expression was activated in mice by removal of doxycycline (a stable analog of tetracycline) in the mice's drinking water. All animal studies were approved by the Stanford University Administrative Panel on Laboratory Animal Care (APLAC).

[4] = target: glycerol 3-phosphate acyltransferase (GPAT); conditions: inhibitor of GPAT; cited from earlier work
fatty acids and PGs = experiment: Lipid profile after TOFA or FSG67 (FIG. 11); design: species or system mouse
Procedure: DESI-MSI was used for generating two-dimensional chemical maps of 16 μm-thick tissue sections in order to assess the lipid profiles of tissue. The tissue samples were snap-frozen in liquid nitrogen and stored at −80° C. before processing. The frozen samples were cut into 16 μm sections at −21° C. using a cryomicrotome and thaw-mounted onto microscope slides. The slides were stored at −80° C. Prior to analysis, the slides were dried under a vacuum in a desiccator for approximately 20 minutes. A laboratory-built DESI-MSI source coupled to an LTQ-Orbitrap-XL mass spectrometer (Thermo Fisher Scientific) was utilized, and DESI-MSI was performed in the negative ion mode at m/z 90-1,000 with a spatial resolution of 200 μm (FIG. S1). The Orbitrap was used as the mass analyzer while set to 60,000 resolving power. Mouse tissue samples were imaged by this method using dimethylformamide and acetonitrile (1:1) as a solvent system at a flow rate of 0.5 μL/min. The N2 pressure was set to 175 psi. In DESI-MSI, charged solvents are sprayed onto the tissue, resulting in molecules, such as metabolites and lipids, to be dissolved and extracted from the tissue surface, then transferred into a mass spectrometer for measurement of the mass-to-charge (m/z) ratios. The software ImgGenerator (freeware, www.msimaging.net/) was used for converting raw files into 2D images. Spatially accurate ion images were assembled using BioMap software (freeware, www.maldi-msi.org/). After DESI-MSI, the same tissue section was subjected to a standard H&E staining for histopathologic evaluation using light microscopy. DESI-MS ion images were compared with optical microscopy images of the same-tissue H&E-stained tissue sections for delineation of tumor foci. Tandem MS analyses were performed using both the Orbitrap and the linear ion trap for mass analysis to confirm lipid identity. The LipidMaps database (www.lipidmaps.org/) was also used to assist in lipid identification.

diet-induced obese mice = conditions: cited from earlier work
human lymphoma lines = experiment: Proliferation of human lymphoma lines (FIG. 5); format: cell-based; conditions: 1-100 μM, 24 hours, various human lymphoma lines
Procedure: as §1, §2

[2H]C([2H])([2H])C([2H])([2H])C([2H])([2H])C([2H])([2H])C([2H])([2H])C([2H])([2H])C([2H])([2H])C([2H])([2H])C([2H])([2H])S(=O)(=O)Nc1ccccc1C(=O)OC [GFZ1.2]
cell viability as compared to FSG67 [1]: significant difference in cell viability

CCCCCCCCCS(=O)(=O)Nc1ccccc1C(=O)OC [GFZ1.5]
cell viability as compared to FSG67 [1]: significant difference in cell viability | cell viability as compared to FSG67 ([2]; RCC E28, 1-100 μM dose, two days (48 hours) post treatment): significant difference in cell viability | cell viability as compared to FSG67 [3]: significant difference in cell viability

CCCCCCCCCS(=O)(=O)Nc1ccccc1C(=O)O [FSG67, 2-(Nonylsulfonamido) benzoic acid]
HCC EC4 proliferation ([1]; 1-100 μM): suppresses HCC EC4 proliferation | therapeutic response, high MYC vs. low or no MYC (mouse-derived T-ALL line): induces therapeutic response in high MYC (no dox) vs. low or no MYC; also recorded: induced a therapeutic response in high MYC (no dox) | MYC-induced tumorigenesis (MYC-induced tumors): MYC-induced tumorigenesis was blocked | metabolic changes (MYC-induced tumors): metabolic changes were suppressed | tumor regression (MYC-induced tumors): tumors regressed | IC50 [4]: 24 µM | RCC E28 proliferation ([2]; 1-100 μM): suppresses RCC E28 proliferation | depletion of lipids (fatty acids, PGs) (fatty acids and PGs): depletes only PGs | levels of fatty acids upstream of GPAT (oleate) (fatty acids and PGs): not perturbing levels of fatty acids that are upstream of GPAT | body weight and adiposity (diet-induced obese mice): decrease body weight and adiposity | energy utilization as fatty acid oxidation (diet-induced obese mice): enhance energy utilization as fatty acid oxidation | food intake (diet-induced obese mice): reduce food intake | hepatic steatosis (diet-induced obese mice): reverse hepatic steatosis | insulin sensitivity (diet-induced obese mice): enhance insulin sensitivity | cell proliferation (human lymphoma lines): suppresses cell proliferation

[2H]c1c([2H])c([2H])c(C(=O)O)c(NS(=O)(=O)CCCCCCCCC)c1[2H] [GFZ1.1]
cell viability as compared to FSG67 [1]: significant difference in cell viability

CCCCCCCCCCCCCCOc1ccc(C(=O)O)o1 [TOFA]
depletion of lipids (fatty acids, PGs) (fatty acids and PGs): depletes all fatty acids
